Test results: patent US10653659B2, “Compositions comprising a compound from the family of avermectins and an agonist compound for at least one of the retinoic acid receptors for treating acne” (GALDERMA SA, priority 2014, dated 2020)
Where “and” joins values, the source holds several entries; their conditions need not be identical. Identical values can stand only once.

The compounds below were run on patients with acne (assay: Comparative clinical study among patients with acne). Details: Treatment A (first treatment, retinoids without ivermectin); scale from 0 to 5; one acne patient per line; duration varies per patient.
Assay type: in vivo, human
Experimental: A comparative study was carried out among patients with acne. […] These same patients then received a second treatment (Treatment B) containing ivermectin and were followed over several months.
By way of example, mention may be made of: Differin 0.3%®, Epiduo®, Metrogel® and Epiduo Forte® marketed by Galderma Laboratories, Accutane® from Roche Laboratories, and Ziana® from Medicis Pharmaceutical Corp.

| Compound | Satisfaction score |
| --- | --- |
| CC1=C(/C=C/C(C)=C/C=C/C(C)=C/CO)C(C)(C)CCC1 [retinol 0.05%, retinol] | 0 |
| COc1ccc(-c2ccc3cc(C(=O)O)ccc3c2)cc1C12CC3CC(CC(C3)C1)C2 [adapalene 0.3%, 6-[3-(1-adamantyl)-4-methoxyphenyl]-2-naphthoic acid] | 1 and 0 |
| CC1=C(/C=C/C(C)=C/C=C/C(C)=C/C(=O)O)C(C)(C)CCC1 [tretinoin 0.05%, tretinoin] | 0 |
